From patent US20250092031A1, “RIPK3 INHIBITORS AND METHODS OF USE” (Momentum Therapeutics, Inc., priority 2023, published 2025)

Legend:
[1] = tested on: Murine L929 cells; experiment: Necroptosis inhibition assay in L929 cells (mTNFα + zVAD, Sytox Green); type: cell-based; conditions: Mus musculus, 10 ng/ml mTNFα and 20 μM zVAD, 6 hours, Sytox Green fluorescence
Experimental: (§1) Murine L929 cells (ATCC-CCL-1) were seeded at 10,000 cells/well in a 96-well plate. Cells were treated 48 hours after seeding with 10 ng/ml mTNFα (R&D Systems) and 20 μM zVAD (ChemShuttle) in the presence of different concentrations of compounds ranging from […] to 0.01 μM. Cells treated with 0.1% DMSO or cells treated with TNFα+zVAD were used as control and vehicle respectively.
Assay plates containing cells were incubated for 6 hours at 37° C. and 5% CO2. Necroptosis was assessed using Sytox Green Nucleic Acid Stain (Invitrogen). After incubation, 100 μL of Sytox dye at 2 μM (2×) diluted in HBSS 1× was added in each well and incubated for 15 min at room temperature. Fluorescence (500ex/530em) was recorded using the Cytation 5 microplate reader (Biotek).
(§2) Percentage of necroptosis inhibition was calculated as the percent compared to control and vehicle conditions which correspond to 100% and 0% respectively. The half-maximum necroptosis inhibition (IC50) levels were calculated using GraphPad Prism software and are shown in Table 3 (NT represents compound not tested).

[2] = tested on: Human HT-29 cells; experiment: Necroptosis inhibition assay in HT-29 cells (hTNFα + zVAD + SMAC mimetic, Sytox Green/Hoechst); type: cell-based; conditions: 10 ng/ml hTNFα, 20 μM zVAD and 100 nM SMAC mimetic, 6 hours, Sytox/Hoechst positive cells, read-out: HT29 necroptosis inhibition IC50
Experimental: as §1, with “Human HT-29” for “Murine L929”, “(ATCC-HTB-38)” for “(ATCC-CCL-1)”, “hTNFα” for “mTNFα”, “Systems),” for “Systems) and”, “(ChemShuttle) and 100 nM SMAC mimetic (MedChem Express)” for “(ChemShuttle)”, “TNFα+zVAD+SMAC mimetic” for “TNFα+zVAD”
Assay plates containing cells were incubated for 6 hours at 37° C. and 5% CO2. Necroptosis was assessed using Sytox Green Nucleic Acid Stain (Invitrogen) and Hoechst staining. After incubation, 100 μL of Sytox dye at 2 μM (2×) diluted in HBSS 1× was added to each well. At the same time, Hoechst stain is added to a final concentration of 10 μM and incubated for 15 min at room temperature. Images were taken for Sytox and Hoechst using the Cytation 5 microplate reader with DAPI and GFP filter cubes (Biotek). Sytox and Hoechst positive cells were counted with CellProfiler software.
as §2

SMILES | IC50 [1] [nM] | IC50 [2] [nM]
CC1CN(C(=O)c2ccc(-c3ccc4nccc(Nc5ccc6scnc6c5)c4c3)c(F)c2)CCN1 (stereo not shown) [Compound 286, (4-(4-(benzo[d]thiazol-5-ylamino)quinolin-6-yl)-3-fluorophenyl)(3-methylpiperazin-1-yl)methanone] | 852 | 75.8
Fc1cc(CN2CCC3(CCNCC3)CC2)ccc1-c1ccc2nccc(Nc3ccc4scnc4c3)c2c1 [Compound 290, N-(6-(4-((3,9-diazaspiro[5.5]undecan-3-yl)methyl)-2-fluorophenyl)quinolin-4-yl)benzo[d]thiazol-5-amine] | < 10000 | < 1000
Fc1cc(CN2CCC3(CCNCC3)CC2)ccc1-c1ccc2c(Nc3ccc4scnc4c3)ccnc2c1 [Compound 291, N-(7-(4-((3,9-diazaspiro[5.5]undecan-3-yl)methyl)-2-fluorophenyl)quinolin-4-yl)benzo[d]thiazol-5-amine] | < 10000 | < 1000
C[C@@H]1CN(C(=O)c2ccc(-c3ccc4nccc(Nc5ccc6scnc6c5)c4c3)c(F)c2)C[C@H](C)N1 [Compound 293, (4-(4-(benzo[d]thiazol-5-ylamino)quinolin-6-yl)-3-fluorophenyl)((3R,5S)-3,5-dimethylpiperazin-1-yl)methanone] | 347 | 32.3
Fc1cc(OC2CCNCC2)ccc1-c1ccc2nccc(Nc3ccc4scnc4c3)c2c1 [Compound 295, N-(6-(2-fluoro-4-(piperidin-4-yloxy)phenyl)quinolin-4-yl)benzo[d]thiazol-5-amine] | 781 | 147
Cc1cc(-c2ccc3nccc(Nc4ccc5scnc5c4)c3c2)c(F)cc1C(=O)N1CCNCC1 [Compound 296, (4-(4-(benzo[d]thiazol-5-ylamino)quinolin-6-yl)-5-fluoro-2-methylphenyl)(piperazin-1-yl)methanone] | 1290 | 16.9
Cc1cc(-c2ccc3c(Nc4ccc5scnc5c4)ccnc3c2)c(F)cc1C(=O)N1CCNCC1 [Compound 297, (4-(4-(benzo[d]thiazol-5-ylamino)quinolin-7-yl)-5-fluoro-2-methylphenyl)(piperazin-1-yl)methanone] | 282 | 174
Fc1cc(CN2CC3CNCC3C2)ccc1-c1ccc2nccc(Nc3ccc4scnc4c3)c2c1 (stereo not shown) [Compound 299, N-(6-(2-fluoro-4-((hexahydropyrrolo[3,4-c]pyrrol-2(1H)-yl)methyl)phenyl)quinolin-4-yl)benzo[d]thiazol-5-amine] | 987 | 462
Fc1cc(CN2CC3CNCC3C2)ccc1-c1ccc2c(Nc3ccc4scnc4c3)ccnc2c1 (stereo not shown) [Compound 300, N-(7-(2-fluoro-4-((hexahydropyrrolo[3,4-c]pyrrol-2(1H)-yl)methyl)phenyl)quinolin-4-yl)benzo[d]thiazol-5-amine] | 461 | 721
O=C(c1ccc(-c2ccc3c(Nc4ccc5scnc5c4)ccnc3c2)c(F)c1)N1C[C@@H]2C[C@H]1CN2 [Compound 301, (4-(4-(benzo[d]thiazol-5-ylamino)quinolin-7-yl)-3-fluorophenyl)((1S,4S)-2,5-diazabicyclo[2.2.1]heptan-2-yl)methanone] | 427 | 197
O=C(c1ccc(-c2ccc3c(Nc4ccc5scnc5c4)ccnc3c2)cc1F)N1CC2CNCC2C1 (stereo not shown) [Compound 303, (4-(4-(benzo[d]thiazol-5-ylamino)quinolin-7-yl)-2-fluorophenyl)(hexahydropyrrolo[3,4-c]pyrrol-2(1H)-yl)methanone] | 977 | 690
O=C(c1ccc(-c2ccc3nccc(Nc4ccc5scnc5c4)c3c2)cc1F)N1CC2CNCC2C1 (stereo not shown) [Compound 305, (4-(4-(benzo[d]thiazol-5-ylamino)quinolin-6-yl)-2-fluorophenyl)(hexahydropyrrolo[3,4-c]pyrrol-2(1H)-yl)methanone] | > 10000 | 402
O=C(c1ccc(-c2ccc3nccc(Nc4ccc5scnc5c4)c3c2)c(F)c1)N1C[C@H]2CNC[C@H]2C1 [Compound 306, (4-(4-(benzo[d]thiazol-5-ylamino)quinolin-6-yl)-3-fluorophenyl)((3aR,6aS)-hexahydropyrrolo[3,4-c]pyrrol-2(1H)-yl)methanone] | < 10000 | 148
O=C(c1ccc(-c2ccc3c(Nc4ccc5scnc5c4)ccnc3c2)c(F)c1)N1C[C@H]2CNC[C@H]2C1 [Compound 307, (4-(4-(benzo[d]thiazol-5-ylamino)quinolin-7-yl)-3-fluorophenyl)((3aR,6aS)-hexahydropyrrolo[3,4-c]pyrrol-2(1H)-yl)methanone] | 774 | 271
NC1CN(C(=O)c2ccc(-c3ccc4c(Nc5ccc6scnc6c5)ccnc4c3)c(F)c2)C1 [Compound 310, (3-aminoazetidin-1-yl)(4-(4-(benzo[d]thiazol-5-ylamino)quinolin-7-yl)-3-fluorophenyl)methanone] | 663 | 294
Fc1cc(OC2CC3(CNC3)C2)ccc1-c1ccc2nccc(Nc3ccc4scnc4c3)c2c1 [Compound 311, N-(6-(4-(2-azaspiro[3.3]heptan-6-yloxy)-2-fluorophenyl)quinolin-4-yl)benzo[d]thiazol-5-amine] | 1030 | 732
O=C(c1ccc(-c2ccc3c(Nc4ccc5scnc5c4)ccnc3c2)c(Cl)c1)N1CC2(CNC2)C1 [Compound 312, (4-(4-(benzo[d]thiazol-5-ylamino)quinolin-7-yl)-3-chlorophenyl)(2,6-diazaspiro[3.3]heptan-2-yl)methanone] | 668 | 1560
O=C(c1ccc(-c2ccc3c(Nc4ccc5scnc5c4)ccnc3c2)c(F)c1)N1[C@@H]2CNC[C@H]1C2 [Compound 313, (4-(4-(benzo[d]thiazol-5-ylamino)quinolin-7-yl)-3-fluorophenyl)((1R,5S)-3,6-diazabicyclo[3.1.1]heptan-6-yl)methanone] | 402 | 302
CN1CCN(C(=O)c2ccc(-c3ccc4nccc(Nc5ccc6scnc6c5)c4c3)c(F)c2)CC1(C)C [Compound 315, (4-(4-(benzo[d]thiazol-5-ylamino)quinolin-6-yl)-3-fluorophenyl)(3,3,4-trimethylpiperazin-1-yl)methanone] | 396 | 120
CS(=O)(=O)N1CC2(CN(C(=O)c3ccc(-c4ccc5nccc(Nc6ccc7scnc7c6)c5c4)c(F)c3)C2)C1 [Compound 316, (4-(4-(benzo[d]thiazol-5-ylamino)quinolin-6-yl)-3-fluorophenyl)(6-(methylsulfonyl)-2,6-diazaspiro[3.3]heptan-2-yl)methanone] | 1580 | 269
O=C(c1ccc(-c2ccc3nccc(Nc4ccc5scnc5c4)c3c2)c(F)c1)N1CCC(O)CC1 [Compound 317, (4-(4-(benzo[d]thiazol-5-ylamino)quinolin-6-yl)-3-fluorophenyl)(4-hydroxypiperidin-1-yl)methanone] | 707 | 169
CC1(O)CCN(C(=O)c2ccc(-c3ccc4nccc(Nc5ccc6scnc6c5)c4c3)c(F)c2)CC1 [Compound 318, (4-(4-(benzo[d]thiazol-5-ylamino)quinolin-6-yl)-3-fluorophenyl)(4-hydroxy-4-methylpiperidin-1-yl)methanone] | 686 | 53.7
CC1(O)CCN(Cc2ccc(-c3ccc4nccc(Nc5ccc6scnc6c5)c4c3)c(F)c2)CC1 [Compound 319, 1-(4-(4-(benzo[d]thiazol-5-ylamino)quinolin-6-yl)-3-fluorobenzyl)-4-methylpiperidin-4-ol] | 301 | 284
CNC(=O)CNCc1ccc(-c2ccc3nccc(Nc4ccc5scnc5c4)c3c2)c(F)c1 [Compound 320, 2-((4-(4-(benzo[d]thiazol-5-ylamino)quinolin-6-yl)-3-fluorobenzyl)amino)-N-methylacetamide] | 444 | 243
COC1CCN(C(=O)c2ccc(-c3ccc4nccc(Nc5ccc6scnc6c5)c4c3)c(F)c2)CC1 [Compound 321, (4-(4-(benzo[d]thiazol-5-ylamino)quinolin-6-yl)-3-fluorophenyl)(4-methoxypiperidin-1-yl)methanone] | 238 | 109
O=C(c1ccc(-c2cc3c(Nc4ccc5scnc5c4)ccnc3cc2F)c(F)c1)N1CCOCC1 [Compound 322, (4-(4-(benzo[d]thiazol-5-ylamino)-7-fluoroquinolin-6-yl)-3-fluorophenyl)(morpholino)methanone] | 175 | 111
